Results from PubChem BioAssay AID467 (The Scripps Research Institute Molecular Screening Center, 2006).
Activity calls are given as the source filed them. How the calls were made is not given here.

System: parental cell line counter screen, S1P1 agonist assay readout
Assay: signal in parental cells, counter-screen for S1P1 agonist project (AID 467);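 further: agonist potency measured against forskolin stimulation plus an EC20 level of SEW2871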

Row | SMILES | EC50
1 | CC1=C(/C=C/C(C)=C/C=C/C(C)=C/C(=O)O)C(C)(C)CCC1 | > 95.1 µM (inactive)
2 | Cc1cc(C(=O)CSc2nnc(-c3ccncc3)n2-c2ccccc2)c(C)n1C | > 95.1 µM (inactive)
3 | Cc1ccc(-c2n[nH]c(=S)n2C)cc1 | > 95.1 µM (inactive)
4 | CCOc1ccc(S(=O)(=O)N2CCN(c3ccc(C)cc3C)CC2)cc1 | > 95.1 µM (inactive)
5 | CCOC(=O)N1CCN(C(=O)C2CCN(c3ncnc4c3sc3cccc(F)c34)CC2)CC1 | 24.2 µM (inactive)
6 | c1ccc2c(c1)oc1c(N3CCN(Cc4ccc5c(c4)OCO5)CC3)ncnc12 | 21.3 µM (inactive)
7 | Oc1ccc(N2CCN(c3ncnc4sc5c(c34)CCC5)CC2)cc1 | > 95.1 µM (inactive)
8 | O=C(CSc1nnc(-c2c[nH]c3ccccc23)o1)N1c2ccccc2CCc2ccccc21 | > 95.1 µM (inactive)
9 | COc1ccc(-c2nc(-c3ccncc3)no2)cc1OC | > 95.1 µM (inactive)
10 | COc1ccc(CCNc2c(C)c(C)nc3ncnn23)cc1 | 43.4 µM (inactive)
11 | O=C1CC(N2CCN(C/C=C/c3ccccc3)CC2)C(=O)N1CCc1ccccc1 (configuration not stated) | > 30 µM (inactive)
12 | CCOC(=O)c1cccc2c1-c1ccccc1/C2=N/O | 12 µM (inactive)
13 | Cc1csc(NC(=O)c2nc(-c3ccccc3)n(-c3ccccc3)n2)n1 | > 95.1 µM (inactive)
14 | COc1ccc(Cc2nc(-c3ccc(-n4cccc4)cc3)no2)cc1OC | > 95.1 µM (inactive)
15 | CCCCOc1ccc(S(=O)(=O)n2c(C)nc3ccccc32)cc1 | > 95.1 µM (inactive)
16 | O=S(=O)(Nc1ccc2c(c1)OCCO2)c1ccc2oc3ccccc3c2c1 | 16.4 µM (inactive)
17 | COc1ccccc1-n1nnnc1S(=O)(=O)Cc1ccc(Cl)cc1 | 3.05 µM
18 | Cn1ncnc2c(=O)n(C)c(=O)nc1-2 | 1.8 µM
19 | COc1ccccc1-c1nc(-c2ccc(Br)cc2)no1 | > 95.1 µM (inactive)
20 | COc1ccccc1-c1cc(C(=O)Nc2cc(C)nn2-c2ccccc2)no1 | > 95.1 µM (inactive)
21 | Cc1nc2sc(-c3ccccc3)cc2c(=O)n1-n1cccc1 | > 95.1 µM (inactive)
22 | COc1ccccc1N/C(N)=N/c1nc(CSc2ccc(C)cc2)cc(=O)[nH]1 | > 95.1 µM (inactive)
23 | COCCn1c(C)cc(C(=O)CSc2nc3ccccc3o2)c1C | > 95.1 µM (inactive)
24 | CCOc1nc(C)ccc1-c1noc(-c2ccncc2)n1 | > 95.1 µM (inactive)
25 | Cc1cc(C(=O)CSc2nc3ccccc3c(=O)n2C)c(C)n1Cc1ccc2c(c1)OCO2 | 54.9 µM (inactive)
26 | O=C(Nc1ccc(N2CCCCC2)c(Cl)c1)c1ncn[nH]1 | > 95.1 µM (inactive)

Row | SMILES | EC50
27 | O=S(=O)(NCc1ccncc1)c1ccc(Br)s1 | > 95.1 µM (inactive)
28 | CCCCOC(=O)c1[nH]c2c(c1C)C(=O)CC(c1cc(OC)c(OC)c(OC)c1)C2 (configuration not stated) | 12.1 µM (inactive)
29 | Cc1n[nH]c(C)c1N1C(=O)c2cccc3c(N4CCCCCC4)ccc(c23)C1=O | 37 µM (inactive)
30 | Cc1cccc(-c2nc(C#N)c(NC3CCCCC3)o2)c1 | > 95.1 µM (inactive)
31 | COc1ccc(-c2noc(-c3ccccc3F)n2)cc1 | > 95.1 µM (inactive)
32 | Cc1onc(-c2ccccc2Cl)c1C(=O)Oc1cc(N)n(S(=O)(=O)c2ccc(F)cc2)n1 | 9.2 µM
33 | Cc1ccccc1-c1noc(-c2ccc(O)cc2)n1 | 25 µM (inactive)
34 | CC(=O)Nc1ccccc1OCC(=O)c1cc(C)n(Cc2cccs2)c1C | 10.5 µM (inactive)
35 | COc1ccccc1Oc1ccc2c(c1)C(=O)N(c1ccc(O)cc1)C2=O | > 95.1 µM (inactive)
36 | Cc1cccc(N2CCN(C(=O)CSCc3c(C)noc3C)CC2)c1C | > 30 µM (inactive)
37 | c1ccc(CSc2nnc(-c3c[nH]c4ccccc34)o2)cc1 | 41.4 µM (inactive)
38 | Oc1ccc(-c2nnc(-c3ccc(O)cc3)nn2)cc1 | > 95.1 µM (inactive)
39 | CC(Oc1ccccc1Br)C(=O)N1CCc2ccccc21 (configuration not stated) | > 95.1 µM (inactive)
40 | O=C(CCC(=O)N(Cc1ccco1)C(C(=O)NC1CCCC1)c1ccncc1)Nc1cccnc1 (configuration not stated) | > 95.1 µM (inactive)
41 | CCn1nc(-c2cccs2)nc2c(=O)n(C)c(=O)nc1-2 | 12.3 µM (inactive)
42 | Cn1c(C(=O)N2CCc3ccccc3C2)cc2oc3ccccc3c21 | 66.4 µM (inactive)
43 | COc1ccc(-c2noc(-c3cc(C)cc(C)c3)n2)cc1OC | > 95.1 µM (inactive)
44 | COc1ccc(S(=O)(=O)Cc2ccc(C(=O)N3CCN(c4cccc(C)c4C)CC3)o2)cc1 | > 30 µM (inactive)
45 | O=C(Nc1nc(-c2ccc(Cl)s2)cs1)c1ccncc1 | > 95.1 µM (inactive)
46 | Oc1ccc(C2NCc3ccccc3-n3cccc32)cc1Cl (configuration not stated) | > 30 µM (inactive)
47 | COc1ccc(-n2c(C)c(C(C)=O)c3cc(O)ccc32)cc1 | > 95.1 µM (inactive)
48 | Cc1[nH]nc2c1C1(C(=O)N(Cc3ccc(Cl)cc3)c3ccccc31)C(C#N)=C(N)O2 (configuration not stated) | > 30 µM (inactive)
49 | O=C(CSc1nnc(-c2cc3ccccc3cc2O)n1Cc1ccco1)c1ccc(F)cc1 | > 10 µM (inactive)
50 | COc1ccccc1OCCCCCc1c(C)n[nH]c1C | 57.2 µM (inactive)
51 | O=c1oc2cc(Br)ccc2n1CSC1=NCCS1 | > 10 µM (inactive)
52 | COC(=O)c1cc(NCc2ccccc2F)ccc1N1CCOCC1 | > 95.1 µM (inactive)

Row | SMILES | EC50
53 | CC(=O)c1ccc(N2CCN(c3ccc(C(F)(F)F)cn3)CC2)cc1 | > 95.1 µM (inactive)
54 | Cc1nc2ccc3nc(NC(=O)C4COc5ccccc5O4)sc3c2s1 (configuration not stated) | > 95.1 µM (inactive)
55 | CCN(CC)C(=O)Oc1ccc2c(=O)c(-c3ccccc3)coc2c1 | > 95.1 µM (inactive)
56 | O=S1(=O)Nc2c(ccc3cccnc23)-c2ccccc21 | > 95.1 µM (inactive)
57 | Oc1c(C(c2ccco2)N2CCN(C(c3ccccc3)c3ccccc3)CC2)sc2ncnn12 (configuration not stated) | 39.5 µM (inactive)
58 | CCOc1ccccc1COC(=O)c1cccc(-n2cnnn2)c1 | > 95.1 µM (inactive)
59 | COc1ccc(NC(=O)c2cc(-c3cccs3)on2)cc1OC | > 95.1 µM (inactive)
60 | CCOc1ccc(-c2nc(-c3ccccc3C)no2)cc1 | > 95.1 µM (inactive)
61 | Cc1cccc(N2CCN(C(=O)C3CCCN(S(=O)(=O)c4cccc5cccnc45)C3)CC2)c1C (configuration not stated) | 28.7 µM (inactive)
62 | CCn1nc(-c2ccccc2)nc2c(=O)n(C)c(=O)nc1-2 | 2.09 µM
63 | Cc1cc(C(=O)CSc2nnc(-c3ccccc3)n2-c2ccccc2)c(C)n1-c1ncn[nH]1 | > 95.1 µM (inactive)
64 | CC1Cc2ccccc2N1c1ncnc2nc[nH]c12 (configuration not stated) | 11.4 µM (inactive)
65 | COc1ccc(-c2nc(-c3ccc(NC(=O)c4ccncc4)cc3)no2)cc1OC | > 30 µM (inactive)
66 | CCOc1ccc(-c2nnc(-c3ccco3)o2)cc1OCC | > 95.1 µM (inactive)
67 | Cc1occc1C(=O)N1CCN(c2ccc(Cl)c(Cl)c2)CC1 | 43.9 µM (inactive)
68 | CN(C)CC(C(=O)c1ccccc1)c1ccccc1 (configuration not stated) | 3.58 µM
69 | CCC(=NCc1ccc2c(c1)OCO2)c1c(O)n(C2CCCCC2)c(=O)[nH]c1=O | 26.6 µM (inactive)
70 | COc1cc2c(cc1OC)C(C)N(C(=O)c1cc3ccccc3o1)CC2 (configuration not stated) | > 95.1 µM (inactive)
71 | CCN=c1scc(-c2ccc3c(c2)NC(=O)CO3)n1N=C1CCCC1 | > 30 µM (inactive)
72 | Cc1ccc(S(=O)(=O)n2nc(C)c(Br)c2C)c(C)c1C | > 95.1 µM (inactive)
73 | CCOC(=O)Nc1ccc2c(c1)N(C(=O)CCN(C)C)c1ccccc1S2 | > 10 µM (inactive)
74 | O=C(Nc1nccs1)c1ccc(S(=O)(=O)NCC2CCCCC2)cc1 | > 30 µM (inactive)
75 | Cc1ccc2nc(NC(=O)CSc3nc4c(c(=O)n3C)SC(C)C4)sc2c1 (configuration not stated) | > 95.1 µM (inactive)
76 | COc1ccc(CNc2cc(C)nc3ncnn23)c(OC)c1 | > 95.1 µM (inactive)
77 | COc1ccc(-c2nc(-c3ccccc3OC)no2)cc1OC | > 95.1 µM (inactive)
78 | O=C(C1CCN(S(=O)(=O)c2cccc3cccnc23)CC1)N1CCN(c2ccc(Cl)cc2)CC1 | 38.3 µM (inactive)

Row | SMILES | EC50
79 | CCOc1cc(-c2noc(-c3cccnc3)n2)ccc1OC | > 95.1 µM (inactive)
80 | CCCc1cc2c(=O)c(-c3ccccn3)coc2cc1OC | > 95.1 µM (inactive)
81 | Cc1ccc2oc(-c3ccc(NC(=O)c4cccnc4)cc3)nc2c1 | > 95.1 µM (inactive)
82 | Cc1nnc(SCC(=O)N2CCC(c3noc4ccc(F)cc34)CC2)s1 | > 95.1 µM (inactive)
83 | N#Cc1ccc(NC(=O)Nc2ccc(Cl)cc2)cc1 | 9.6 µM
84 | CCCCn1nnnc1SCC(=O)c1ccc(C)c(C)c1 | > 95.1 µM (inactive)
85 | Cc1cc(C)n2nc(SCC(=O)c3cc(C)n(-c4cc(C)on4)c3C)nc2n1 | 63.5 µM (inactive)
86 | COc1ccccc1-c1nc(-c2cccc(C)c2)no1 | > 95.1 µM (inactive)
87 | Cc1cc(C(=O)CSc2nnnn2C)c(C)n1-c1cccc(F)c1 | > 95.1 µM (inactive)
88 | CCN(CC)c1ccc(-n2c(C)c(C(C)=O)c(C(C)=O)c2C)cc1 | > 95.1 µM (inactive)
89 | COc1ccc(-c2nc(-c3ccc(Br)o3)no2)cc1OC | > 95.1 µM (inactive)
90 | COc1cccc2sc(Nc3nc(-c4ccccn4)cs3)nc12 | 8.08 µM
91 | COc1ccc2c(c1)-c1nc(NC(=O)c3cccs3)sc1CC2 | 16.2 µM (inactive)
92 | COc1cccc(N2CCN(c3ncnc4c3[nH]c3ccccc34)CC2C)c1 (configuration not stated) | 4.8 µM
93 | CCc1ccc2c(COC(=O)c3n[nH]c4ccccc34)cc(=O)oc2c1 | > 95.1 µM (inactive)
94 | COC(=O)C1=CN(CCCN2CCCC2=O)C=C(C(=O)OC)C1c1ccccc1C(F)(F)F | > 95.1 µM (inactive)
95 | Clc1ccc(OCCN2CCN(c3ncnc4sccc34)CC2)cc1 | 2.63 µM
96 | COc1ccc2[nH]c(=O)c3c(c2c1)OC(C)(C)C=C3 | 6.75 µM
97 | CC(C)C(c1nnnn1Cc1ccccc1)N(Cc1ccco1)Cc1cccs1 (configuration not stated) | > 95.1 µM (inactive)
98 | COc1ccc(-c2nc(-c3cccc(C)c3)no2)cc1OC | > 95.1 µM (inactive)
99 | O=C1C2C3C=CC(CO)(O3)C2C(=O)N1c1ccccc1-c1ccccc1 (configuration not stated) | 2.26 µM
100 | CC(C)N1C(=O)CCC1C(=O)N1CCC(Cc2ccccc2)CC1 (configuration not stated) | > 95.1 µM (inactive)
101 | Cc1cc(-c2nnc(-c3ccccc3)c(-c3ccccc3)n2)c(C)o1 | 33.7 µM (inactive)
102 | Clc1ccc(OCc2nnc(-c3ccccc3Br)o2)c(Cl)c1 | > 95.1 µM (inactive)
